Laboratory results as given in patent US10787450B2 (BRISTOL-MYERS SQUIBB COMPANY, priority 2016, dated 2020).
pIC50: −log10 of the molar value.

target: ROCK2 (Homo sapiens (Human), UniProt O75116); experiment: ROCK2 kinase inhibition assay (FITC peptide substrate, LABCHIP 3000 Reader); type: biochemical; settings: 5 μM ATP, 1.5 μM peptide substrate
Procedure, shortened: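 Reaction in 20 mM HEPES pH 7.5, 20 mM MgCl2, 0.015% Brij-35, 4 mM DTT with 5 μM ATP and 1.5 μM FITC-AHA-AKRRRLSSLRA-OH peptide, started with Rho kinase, DMSO <2%. EDTA-stopped; phospho and non-phospho peptide separated by mobility shift. IC50 from dose-response curve fit.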

Sequence of ROCK2 (O75116 whole entry, species assumed): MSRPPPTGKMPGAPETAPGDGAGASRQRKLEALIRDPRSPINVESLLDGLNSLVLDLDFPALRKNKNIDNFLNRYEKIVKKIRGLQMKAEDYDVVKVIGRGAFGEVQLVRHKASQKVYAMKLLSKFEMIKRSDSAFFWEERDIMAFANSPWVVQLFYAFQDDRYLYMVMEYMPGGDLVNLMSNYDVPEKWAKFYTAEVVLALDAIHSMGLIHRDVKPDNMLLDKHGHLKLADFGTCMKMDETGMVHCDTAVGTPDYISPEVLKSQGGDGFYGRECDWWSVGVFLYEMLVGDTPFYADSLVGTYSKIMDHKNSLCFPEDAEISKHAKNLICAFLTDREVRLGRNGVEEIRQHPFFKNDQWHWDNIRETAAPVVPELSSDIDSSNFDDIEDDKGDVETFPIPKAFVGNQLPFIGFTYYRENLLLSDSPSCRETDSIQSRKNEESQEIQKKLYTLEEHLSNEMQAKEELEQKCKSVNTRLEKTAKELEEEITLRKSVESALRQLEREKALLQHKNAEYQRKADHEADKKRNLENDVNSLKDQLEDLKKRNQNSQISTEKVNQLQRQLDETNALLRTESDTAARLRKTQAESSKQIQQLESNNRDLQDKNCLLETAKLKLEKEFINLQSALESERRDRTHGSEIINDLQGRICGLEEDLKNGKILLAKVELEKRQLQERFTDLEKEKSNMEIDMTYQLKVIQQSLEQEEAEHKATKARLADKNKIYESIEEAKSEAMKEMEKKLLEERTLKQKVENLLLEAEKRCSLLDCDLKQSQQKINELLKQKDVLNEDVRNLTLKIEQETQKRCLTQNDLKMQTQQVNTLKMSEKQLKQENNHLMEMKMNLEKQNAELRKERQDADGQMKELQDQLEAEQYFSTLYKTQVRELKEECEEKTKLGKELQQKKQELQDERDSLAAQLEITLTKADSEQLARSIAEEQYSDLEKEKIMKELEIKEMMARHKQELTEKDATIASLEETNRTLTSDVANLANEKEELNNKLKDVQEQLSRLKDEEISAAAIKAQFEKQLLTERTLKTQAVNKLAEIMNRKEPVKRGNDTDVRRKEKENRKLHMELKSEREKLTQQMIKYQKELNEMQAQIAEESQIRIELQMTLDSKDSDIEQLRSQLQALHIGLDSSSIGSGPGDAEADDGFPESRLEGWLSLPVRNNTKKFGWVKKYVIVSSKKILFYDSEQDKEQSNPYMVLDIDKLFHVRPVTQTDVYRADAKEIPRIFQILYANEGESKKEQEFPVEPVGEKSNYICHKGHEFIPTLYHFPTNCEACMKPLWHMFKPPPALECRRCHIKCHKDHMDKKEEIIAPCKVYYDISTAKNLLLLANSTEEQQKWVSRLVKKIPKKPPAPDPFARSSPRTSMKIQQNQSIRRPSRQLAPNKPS

Row | pIC50 | SMILES
1 | > 8.52 | COc1cccc(CN2C(=O)N(c3ccc(-c4cn[nH]c4)c(OC)n3)CC23CCN(C(=O)C(C)(C)O)CC3)c1 [Example 222, 8-(2-hydroxy-2-methylpropanoyl)-3-(6-methoxy-5-(1H-pyrazol-4-yl)pyridin-2-yl)-1-(3-methoxybenzyl)-1,3,8-triazaspiro[4.5]decan-2-one]
2 | 7.52 to 8.52 | COc1cccc(CN2C(=O)N(c3ccc(-c4cn[nH]c4)cc3)CC23CCN(C(=O)c2cnn4ccccc24)CC3)c1 [Example 180, 3-(4-(1H-pyrazol-4-yl)phenyl)-1-(3-methoxybenzyl)-8-(pyrazolo[1,5-a]pyridine-3-carbonyl)-1,3,8-triazaspiro[4.5] decan-2-one]
3 | > 8.52 | COC(=O)N1CCC2(CC1)CN(c1ccc(-c3cn[nH]c3)c(OC)n1)C(=O)N2Cc1cccc(OC)c1 [Example 102, methyl 3-(6-methoxy-5-(1H-pyrazol-4-yl)pyridin-2-yl)-1-(3-methoxybenzyl)-2-oxo-1,3,8-triazaspiro[4.5]decane-8-carboxylate]
4 | 7.52 to 8.52 | Cc1c(F)cccc1CN1C(=O)N(c2ccc(-c3cn[nH]c3)cc2)CC12CCN(C(=O)OC(C)(C)C)CC2 [Example 49, tert-butyl 3-(4-(1H-pyrazol-4-yl)phenyl)-1-(3-fluoro-2-methylbenzyl)-2-oxo-1,3,8-triazaspiro[4.5]decane-8-carboxylate]
5 | 6.60 to 7.52 | Cc1cc(F)ccc1CN1C(=O)N(c2ccc(-c3cn[nH]c3)cc2)CC12CCOCC2 [Example 26, 3-(4-(1H-pyrazol-4-yl)phenyl)-1-(4-fluoro-2-methylbenzyl)-8-oxa-1,3-diazaspiro[4.5]decan-2-one]
6 | > 8.52 | COc1cccc(CN2C(=O)N(c3ccc(-c4cn[nH]c4)c(OC)n3)CC23CCN(C(=O)CN(C)C)CC3)c1 [Example 218, 8-(2-(dimethylamino)acetyl)-3-(6-methoxy-5-(1H-pyrazol-4-yl)pyridin-2-yl)-1-(3-methoxybenzyl)-1,3,8-triazaspiro[4.5]decan-2-one]
7 | 7.52 to 8.52 | CCc1nc(N2CC3(CCN(C(=O)C4CC(F)C4)CC3)N(Cc3cccc(OC)c3)C2=O)ccc1-c1cn[nH]c1 (centres unmarked) [Example 208, 3-(6-ethyl-5-(1H-pyrazol-4-yl)pyridin-2-yl)-8-(3-fluorocyclobutane-carbonyl)-1-(3-methoxybenzyl)-1,3,8-triazaspiro[4.5]decan-2-one]
8 | > 8.52 | COc1cc(F)cc(CN2C(=O)N(c3ccc(-c4cn[nH]c4)cc3)CC23CCN(CC(C)O)CC3)c1 (centres unmarked) [Example 157, 3-(4-(1H-pyrazol-4-yl)phenyl)-1-(3-fluoro-5-methoxybenzyl)-8-(2-hydroxypropyl)-1,3,8-triazaspiro[4.5]decan-2-one]
9 | 5.52 to 6.60 | O=C(c1cccc(CN2C(=O)N(c3ccc(-c4cn[nH]c4)cc3)CC23CCOCC3)c1)N1CC(F)C1 [Example 43, 3-(4-(1H-pyrazol-4-yl)phenyl)-1-(3-(3-fluoroazetidine-1-carbonyl)benzyl)-8-oxa-1,3-diazaspiro[4.5]decan-2-one]
10 | > 8.52 | CCc1nc(N2CC3(CCN(C(=O)C4COC4)CC3)N(Cc3cccc(OC)c3)C2=O)ccc1-c1cn[nH]c1 [Example 185, 3-(6-ethyl-5-(1H-pyrazol-4-yl)pyridin-2-yl)-1-(3-methoxybenzyl)-8-(oxetane-3-carbonyl)-1,3,8-triazaspiro[4.5]decan-2-one]
11 | 6.60 to 7.52 | CC(=O)N1CCC2(CC1)CN(c1ccc(-c3cn[nH]c3)cc1)C(=O)N2CC1CCCCC1 [Example 79, 3-(4-(1H-pyrazol-4-yl)phenyl)-8-acetyl-1-(cyclohexylmethyl)-1,3,8-triazaspiro[4.5]decan-2-one]
12 | > 8.52 | CCc1nc(N2CC3(CCN(C(=O)C4CC(F)(F)C4)CC3)N(Cc3cccc(OC)c3)C2=O)ccc1-c1cn[nH]c1 [Example 202, 8-(3,3-difluorocyclobutane-carbonyl)-3-(6-ethyl-5-(1H-pyrazol-4-yl)pyridin-2-yl)-1-(3-methoxybenzyl)-1,3,8-triazaspiro[4.5]decan-2-one]
13 | 7.52 to 8.52 | CCc1cc(N2CC3(CC3)N(Cc3cc(F)cc(OC)c3)C2=O)ccc1-c1cn[nH]c1 [Example 4, 6-(3-ethyl-4-(1H-pyrazol-4-yl)phenyl)-4-(3-fluoro-5-methoxybenzyl)-4,6-diazaspiro[2.4]heptan-5-one]
14 | 7.52 to 8.52 | CCOC(=O)N1CCC2(CC1)CN(c1ncc(-c3cn[nH]c3)c(OC)n1)C(=O)N2Cc1cccc(OC)c1 [Example 112, ethyl 3-(4-methoxy-5-(1H-pyrazol-4-yl)pyrimidin-2-yl)-1-(3-methoxybenzyl)-2-oxo-1,3,8-triazaspiro[4.5]decane-8-carboxylate]
15 | > 8.52 | COc1cccc(CN2C(=O)N(c3ccc(-c4cn[nH]c4)cc3)CC23CCN(C(=O)OCC(C)C)CC3)c1 [Example 95, isobutyl 3-(4-(1H-pyrazol-4-yl)phenyl)-1-(3-methoxybenzyl)-2-oxo-1,3,8-triazaspiro[4.5]decane-8-carboxylate]
16 | > 8.52 | COc1nc(N2CC3(CCN(C(=O)CO)CC3)N(Cc3cccc(F)c3C)C2=O)ccc1-c1cn[nH]c1 [Example 229, 1-(3-fluoro-2-methylbenzyl)-8-(2-hydroxyacetyl)-3-(6-methoxy-5-(1H-pyrazol-4-yl)pyridin-2-yl)-1,3,8-triazaspiro[4.5]decan-2-one]

Row | pIC50 | SMILES
17 | 6.60 to 7.52 | O=C1N(c2ccc(-c3cn[nH]c3)cc2)CC2(CCOCC2)N1Cc1ccccc1F [Example 12, 3-(4-(1H-pyrazol-4-yl)phenyl)-1-(2-fluorobenzyl)-8-oxa-1,3-diazaspiro[4.5]decan-2-one]
18 | > 8.52 | COc1cccc(CN2C(=O)N(c3ccc(-c4cn[nH]c4)cc3)CC23CCN(C(C)=O)CC3)c1 [Example 76, 3-(4-(1H-pyrazol-4-yl)phenyl)-8-acetyl-1-(3-methoxybenzyl)-1,3,8-triazaspiro[4.5]decan-2-one]
19 | 7.52 to 8.52 | COc1cccc(CN2C(=O)N(c3ncc(-c4cn[nH]c4)c(OC)n3)CC23CCN(C(=O)OC(C)(C)C)CC3)c1 [Example 56, tert-butyl 3-(4-methoxy-5-(1H-pyrazol-4-yl)pyrimidin-2-yl)-1-(3-methoxybenzyl)-2-oxo-1,3,8-triazaspiro[4.5]decane-8-carboxylate]
20 | > 8.52 | CCN1CCC2(CC1)CN(c1ccc(-c3cn[nH]c3)cc1)C(=O)N2Cc1cccc(OC)c1 [Example 122, 3-(4-(1H-pyrazol-4-yl)phenyl)-8-ethyl-1-(3-methoxybenzyl)-1,3,8-triazaspiro[4.5]decan-2-one]
21 | 7.52 to 8.52 | COc1cccc(CN2C(=O)N(c3ccc(-c4cn[nH]c4)cn3)CC23CCN(C(=O)CO)CC3)c1 [Example 195, 3-(5-(1H-pyrazol-4-yl)pyridin-2-yl)-8-(2-hydroxyacetyl)-1-(3-methoxybenzyl)-1,3,8-triazaspiro[4.5]decan-2-one]
22 | > 8.52 | COc1cccc(CN2C(=O)N(c3ccc(-c4cn[nH]c4)cc3)CC23CCN(C2COC2)CC3)c1 [Example 235, 3-(4-(1H-pyrazol-4-yl)phenyl)-1-(3-methoxybenzyl)-8-(oxetan-3-yl)-1,3,8-triazaspiro[4.5]decan-2-one]
23 | > 8.52 | COc1cc(CN2C(=O)N(c3ccc(-c4cn[nH]c4)cc3)CC23CC3)ccc1F [Example 6, 6-(4-(1H-pyrazol-4-yl)phenyl)-4-(4-fluoro-3-methoxybenzyl)-4,6-diazaspiro[2.4]heptan-5-one]
24 | > 8.52 | COc1cccc(CN2C(=O)N(c3ccc(-c4cn[nH]c4)c(OC)n3)CC23CCN(C(=O)OC(C)(C)C)CC3)c1 [Example 54, tert-butyl 3-(6-methoxy-5-(1H-pyrazol-4-yl)pyridin-2-yl)-1-(3-methoxybenzyl)-2-oxo-1,3,8-triazaspiro[4.5]decane-8-carboxylate]
25 | > 8.52 | COCCN1CCC2(CC1)CN(c1ccc(-c3cn[nH]c3)cn1)C(=O)N2Cc1cccc(OC)c1 [Example 162, 3-(5-(1H-pyrazol-4-yl)pyridin-2-yl)-1-(3-methoxybenzyl)-8-(2-methoxyethyl)-1,3,8-triazaspiro[4.5]decan-2-one]
26 | > 8.52 | COc1cccc(CN2C(=O)N(c3ccc(-c4cn[nH]c4)c(OC)n3)CC23CCN(CCO)CC3)c1 [Example 146, 8-(2-hydroxyethyl)-3-(6-methoxy-5-(1H-pyrazol-4-yl)pyridin-2-yl)-1-(3-methoxybenzyl)-1,3,8-triazaspiro[4.5]decan-2-one]
27 | 7.52 to 8.52 | O=C1N(c2ccc(-c3cn[nH]c3)cc2)CC2(CCNCC2)N1Cc1ccccc1F [Example 63, 3-(4-(1H-pyrazol-4-yl)phenyl)-1-(2-fluorobenzyl)-1,3,8-triazaspiro[4.5]decan-2-one]
28 | 7.52 to 8.52 | COc1cccc(CN2C(=O)N(c3ccc(-c4cn[nH]c4)cc3)CC23CCN(C(=O)OC(C)(C)C)CC3)c1 [Example 48, tert-butyl 3-(4-(1H-pyrazol-4-yl)phenyl)-1-(3-methoxybenzyl)-2-oxo-1,3,8-triazaspiro[4.5]decane-8-carboxylate]
29 | > 8.52 | O=C(NC1CCC1)c1cccc(CN2C(=O)N(c3ccc(-c4cn[nH]c4)cc3)CC23CCOCC3)c1 [Example 33, 3-((3-(4-(1H-pyrazol-4-yl)phenyl)-2-oxo-8-oxa-1,3-diazaspiro[4.5]decan-1-yl)methyl)-N-cyclobutylbenzamide]
30 | > 8.52 | COc1cccc(CN2C(=O)N(c3ccc(-c4cn[nH]c4)cc3)CC23CCN(CC2CC2)CC3)c1 [Example 115, 3-(4-(1H-pyrazol-4-yl)phenyl)-8-(cyclopropylmethyl)-1-(3-methoxybenzyl)-1,3,8-triazaspiro[4.5]decan-2-one]
31 | > 8.52 | COc1cccc(CN2C(=O)N(c3ccc(-c4cn[nH]c4)cc3)CC23CCN(CC(=O)N(C)C)CC3)c1 [Example 170, 2-(3-(4-(1H-pyrazol-4-yl)phenyl)-1-(3-methoxybenzyl)-2-oxo-1,3,8-triazaspiro[4.5]decan-8-yl)-N,N-dimethylacetamide]
32 | 6.60 to 7.52 | NC(=O)c1cccc(CN2C(=O)N(c3ccc(-c4cn[nH]c4)cc3)CC23CCOCC3)c1 [Example 32, 3-((3-(4-(1H-pyrazol-4-yl)phenyl)-2-oxo-8-oxa-1,3-diazaspiro[4.5]decan-1-yl)methyl)benzamide]
